Measured values: US11969428B2, “Methods and pharmaceutical compositions for treating lymphoid malignancy” (priority 2011, dated 2024)

Columns and labels:
Assay in all cases: Ambit KinomeScan screening
Assay type in all cases: binding
Details in all cases: CAL-130 10 μM
[1] = target: T1, p38-α (Homo sapiens, UniProt Q16539)
T1 construct: purchased Ambit (KinomeScan screening service)
Method: (§1) CAL-130 (10 μM) was evaluated for its ability to prevent tagged kinases from interacting with immobilized “bait” ligand (Karaman et al., 2008). Results are reported as “% of control binding”, where lower numbers indicate stronger interactions with the tagged kinase. Values of >35% are considered “no hits”. PI3Kδ had the lowest percentage of control binding at 0.2% followed by PI3Kγ at 3.2% (See Table 1 below). These values indicate a high probability of a potent interaction. 353 kinases were assessed in the screen (Table 2).

[2] = target: T2, JAK2(JH1domain) (Homo sapiens, UniProt O60674)
T2 construct: JAK2(JH1domain); purchased Ambit (KinomeScan screening)
Method: as §1

[3] = target: T3, SBK1 (Homo sapiens, UniProt Q52WX2)
T3 construct: tag, kind not specified; purchased Ambit (KinomeScan screening service)
Method: as §1

[4] = target: T4, ANKK1 (Homo sapiens, UniProt Q8NFD2)
T4 construct: purchased Ambit (KinomeScan screening)
Method: as §1

[5] = target: T5, CSK (Homo sapiens, UniProt P41240)
T5 construct: purchased Ambit (KinomeScan screening service)
Method: as §1

[6] = target: T6, TYK2(JH1domain) (Homo sapiens, UniProt P29597)
T6 construct: TYK2(JH1domain); tag, kind not specified; purchased Ambit (KinomeScan screening service)
Method: as §1

[7] = target: T7, WEE2 (Homo sapiens, UniProt P0C1S8)
T7 construct: purchased Ambit (KinomeScan screening service)
Method: as §1

[8] = target: T8, MAP4K3 (Homo sapiens, UniProt Q8IVH8)
T8 construct: Ambit (KinomeScan screening)
Method: as §1

[9] = target: T9, MAP3K15 (Homo sapiens, UniProt Q6ZN16)
T9 construct: Ambit (KinomeScan screening)
Method: as §1

[10] = target: T10, RIOK1 (Homo sapiens, UniProt Q9BRS2)
T10 construct: unspecified tag (tagged kinase); purchased Ambit (KinomeScan screening)
Method: as §1

[11] = target: T11, PKMYT1 (Homo sapiens, UniProt Q99640)
T11 construct: purchased Ambit (KinomeScan screening service)
Method: as §1

[12] = target: T12, ABL1 (Homo sapiens, UniProt P00519)
T12 construct: unspecified tag ("tagged kinases"); purchased Ambit (KinomeScan screening)
Method: as §1

[13] = target: T13, ROS1 (Homo sapiens, UniProt P08922)
T13 construct: unspecified tag (tagged kinase); purchased Ambit (KinomeScan screening)
Method: as §1

[14] = target: T14, HPK1 (Homo sapiens, UniProt Q92918)
T14 construct: Ambit (KinomeScan screening)
Method: as §1

[15] = target: T15, PIK3CB (Homo sapiens, UniProt P42338)
T15 construct: unspecified tag; purchased Ambit (KinomeScan screening panel)
Method: as §1

[16] = target: T16, DMPK (Homo sapiens, UniProt Q09013)
T16 construct: unspecified tag ("tagged kinases"); purchased Ambit (KinomeScan screening service)
Method: as §1

[17] = target: T17, MARK2 (Homo sapiens, UniProt Q7KZI7)
T17 construct: Ambit (KinomeScan screening)
Method: as §1

[18] = target: T18, CSNK1D (Homo sapiens, UniProt P48730)
T18 construct: purchased Ambit (KinomeScan screening service)
Method: as §1

[19] = target: T19, ACVR2B (Homo sapiens, UniProt Q13705)
T19 construct: purchased Ambit (KinomeScan screening)
Method: as §1

[20] = target: T20, AAK1 (Homo sapiens, UniProt Q2M2I8)
T20 construct: unspecified tag ("tagged kinases"); purchased Ambit (KinomeScan screening)
Method: as §1

[21] = target: T21, MLK2 (Homo sapiens, UniProt Q02779)
T21 construct: unspecified tag ('tagged kinases'); purchased Ambit (KinomeScan screening)
Method: as §1

[22] = target: T22, TNIK (Homo sapiens, UniProt Q9UKE5)
T22 construct: unspecified tag (tagged kinase); purchased Ambit (KinomeScan screening)
Method: as §1

[23] = target: T23, RET(V804L) (Homo sapiens, UniProt P07949, V804L)
T23 construct: tag (kind not specified); purchased Ambit (KinomeScan screening service)
Method: as §1

[24] = target: T24, CIT (Homo sapiens, UniProt O14578)
T24 construct: purchased Ambit (KinomeScan screening service)
Method: as §1

[25] = target: T25, MET(Y1235D) (Homo sapiens, UniProt P08581, Y1235D)
T25 construct: unspecified tag ('tagged kinases'); purchased Ambit (KinomeScan screening)
Method: as §1

[26] = target: T26, EGFR(L747-T751DEL, SINS) (Homo sapiens, UniProt P00533, DEL747-750/T751S)
T26 construct: unspecified tag; purchased Ambit (KinomeScan screening service)
Method: as §1

[27] = target: T27, MKNK1 (Homo sapiens, UniProt Q9BUB5)
T27 construct: unspecified tag ('tagged kinases'); purchased Ambit (KinomeScan screening)
Method: as §1

[28] = target: T28, TNK2 (Homo sapiens, UniProt Q07912)
T28 construct: unspecified tag (tagged kinase); purchased Ambit (KinomeScan screening)
Method: as §1

[29] = target: T29, EGFR (Homo sapiens, UniProt P00533)
T29 construct: unspecified tag; purchased Ambit (KinomeScan screening service)
Method: as §1

[30] = target: T30, TBK1 (Homo sapiens, UniProt Q9UHD2)
T30 construct: tag (kind not specified); purchased Ambit (KinomeScan screening service)
Method: as §1

[31] = target: T31, DYRK2 (Homo sapiens, UniProt Q92630)
T31 construct: unspecified tag; purchased Ambit (KinomeScan screening service)
Method: as §1

[32] = target: T32, ABL1(H396P) (Homo sapiens, UniProt P00519, H396P)
T32 construct: unspecified tag ("tagged kinases"); purchased Ambit (KinomeScan screening)
Method: as §1

[33] = target: T33, FLT3(D835H) (Homo sapiens, UniProt P36888, D835H)
T33 construct: unspecified tag; purchased Ambit (KinomeScan screening service)
Method: as §1

[34] = target: T34, PRKCE (Homo sapiens, UniProt Q02156)
T34 construct: purchased Ambit (KinomeScan screening service)
Method: as §1

T15 sequence (P42338 whole entry): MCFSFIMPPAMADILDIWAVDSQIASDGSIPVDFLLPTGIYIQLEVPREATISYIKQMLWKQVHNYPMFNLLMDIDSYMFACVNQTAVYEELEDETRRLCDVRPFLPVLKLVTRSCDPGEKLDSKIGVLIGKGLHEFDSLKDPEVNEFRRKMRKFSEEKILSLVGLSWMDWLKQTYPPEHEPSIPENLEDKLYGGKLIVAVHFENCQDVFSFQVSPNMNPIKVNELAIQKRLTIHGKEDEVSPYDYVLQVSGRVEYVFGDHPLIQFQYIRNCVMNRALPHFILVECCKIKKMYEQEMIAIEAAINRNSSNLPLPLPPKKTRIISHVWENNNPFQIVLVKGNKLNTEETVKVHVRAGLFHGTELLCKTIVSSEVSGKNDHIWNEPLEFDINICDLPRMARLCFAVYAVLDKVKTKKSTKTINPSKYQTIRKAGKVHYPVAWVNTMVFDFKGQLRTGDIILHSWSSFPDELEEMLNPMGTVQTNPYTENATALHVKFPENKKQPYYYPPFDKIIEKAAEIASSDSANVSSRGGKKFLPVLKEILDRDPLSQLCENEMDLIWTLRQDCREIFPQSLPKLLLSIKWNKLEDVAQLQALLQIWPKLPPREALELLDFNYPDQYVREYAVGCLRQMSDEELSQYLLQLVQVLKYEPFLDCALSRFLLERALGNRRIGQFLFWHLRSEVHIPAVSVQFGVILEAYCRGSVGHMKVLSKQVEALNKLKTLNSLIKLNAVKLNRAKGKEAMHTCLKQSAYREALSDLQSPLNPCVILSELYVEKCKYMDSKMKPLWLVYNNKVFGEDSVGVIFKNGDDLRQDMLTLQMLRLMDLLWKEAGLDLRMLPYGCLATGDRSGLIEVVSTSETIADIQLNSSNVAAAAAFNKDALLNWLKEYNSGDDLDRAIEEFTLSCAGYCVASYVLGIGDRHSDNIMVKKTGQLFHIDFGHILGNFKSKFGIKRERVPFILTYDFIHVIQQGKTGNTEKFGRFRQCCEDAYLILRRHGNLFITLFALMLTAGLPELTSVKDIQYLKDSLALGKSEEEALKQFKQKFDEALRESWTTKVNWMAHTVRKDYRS
T7 sequence (P0C1S8 whole entry): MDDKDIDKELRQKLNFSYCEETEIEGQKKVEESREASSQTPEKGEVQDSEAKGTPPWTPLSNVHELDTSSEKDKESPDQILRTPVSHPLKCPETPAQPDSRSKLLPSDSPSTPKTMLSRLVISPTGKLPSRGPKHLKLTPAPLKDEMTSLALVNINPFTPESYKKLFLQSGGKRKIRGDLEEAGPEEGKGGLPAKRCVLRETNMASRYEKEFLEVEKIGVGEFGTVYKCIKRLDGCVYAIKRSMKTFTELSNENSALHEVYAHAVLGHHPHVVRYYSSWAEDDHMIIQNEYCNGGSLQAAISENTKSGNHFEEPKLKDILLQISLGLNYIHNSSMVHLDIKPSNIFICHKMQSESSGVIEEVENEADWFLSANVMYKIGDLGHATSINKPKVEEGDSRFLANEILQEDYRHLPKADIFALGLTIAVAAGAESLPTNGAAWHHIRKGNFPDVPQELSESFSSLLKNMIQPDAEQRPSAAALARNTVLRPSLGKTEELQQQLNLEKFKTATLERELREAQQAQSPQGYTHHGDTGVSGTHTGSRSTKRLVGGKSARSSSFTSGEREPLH
T27 sequence (Q9BUB5 whole entry): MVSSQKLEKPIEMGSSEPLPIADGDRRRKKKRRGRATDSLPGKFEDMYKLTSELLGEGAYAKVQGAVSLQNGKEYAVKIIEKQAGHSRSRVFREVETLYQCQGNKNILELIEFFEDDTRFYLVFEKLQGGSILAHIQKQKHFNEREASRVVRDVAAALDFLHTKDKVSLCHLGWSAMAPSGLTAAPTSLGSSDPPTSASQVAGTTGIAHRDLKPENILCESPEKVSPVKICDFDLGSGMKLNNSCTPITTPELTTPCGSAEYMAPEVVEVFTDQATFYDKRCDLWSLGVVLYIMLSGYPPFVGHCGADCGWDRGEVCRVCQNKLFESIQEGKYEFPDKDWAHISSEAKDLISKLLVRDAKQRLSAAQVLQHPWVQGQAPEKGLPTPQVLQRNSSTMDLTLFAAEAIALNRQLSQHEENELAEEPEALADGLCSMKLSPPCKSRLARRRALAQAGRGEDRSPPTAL
T19 sequence (Q13705 19-512): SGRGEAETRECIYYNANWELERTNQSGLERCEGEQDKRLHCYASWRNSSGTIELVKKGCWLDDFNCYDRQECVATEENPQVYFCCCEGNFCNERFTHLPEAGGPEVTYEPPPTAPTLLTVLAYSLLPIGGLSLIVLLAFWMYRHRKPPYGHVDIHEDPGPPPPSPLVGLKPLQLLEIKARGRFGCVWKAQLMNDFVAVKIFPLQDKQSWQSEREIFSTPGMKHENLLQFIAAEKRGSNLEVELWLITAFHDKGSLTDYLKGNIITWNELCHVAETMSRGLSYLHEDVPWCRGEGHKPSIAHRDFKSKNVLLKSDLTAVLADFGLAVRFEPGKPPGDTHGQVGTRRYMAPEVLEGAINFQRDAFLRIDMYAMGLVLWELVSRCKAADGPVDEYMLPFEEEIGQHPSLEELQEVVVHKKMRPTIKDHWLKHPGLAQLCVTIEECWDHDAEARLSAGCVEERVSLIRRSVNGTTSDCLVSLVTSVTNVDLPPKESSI
T24 sequence (O14578 whole entry): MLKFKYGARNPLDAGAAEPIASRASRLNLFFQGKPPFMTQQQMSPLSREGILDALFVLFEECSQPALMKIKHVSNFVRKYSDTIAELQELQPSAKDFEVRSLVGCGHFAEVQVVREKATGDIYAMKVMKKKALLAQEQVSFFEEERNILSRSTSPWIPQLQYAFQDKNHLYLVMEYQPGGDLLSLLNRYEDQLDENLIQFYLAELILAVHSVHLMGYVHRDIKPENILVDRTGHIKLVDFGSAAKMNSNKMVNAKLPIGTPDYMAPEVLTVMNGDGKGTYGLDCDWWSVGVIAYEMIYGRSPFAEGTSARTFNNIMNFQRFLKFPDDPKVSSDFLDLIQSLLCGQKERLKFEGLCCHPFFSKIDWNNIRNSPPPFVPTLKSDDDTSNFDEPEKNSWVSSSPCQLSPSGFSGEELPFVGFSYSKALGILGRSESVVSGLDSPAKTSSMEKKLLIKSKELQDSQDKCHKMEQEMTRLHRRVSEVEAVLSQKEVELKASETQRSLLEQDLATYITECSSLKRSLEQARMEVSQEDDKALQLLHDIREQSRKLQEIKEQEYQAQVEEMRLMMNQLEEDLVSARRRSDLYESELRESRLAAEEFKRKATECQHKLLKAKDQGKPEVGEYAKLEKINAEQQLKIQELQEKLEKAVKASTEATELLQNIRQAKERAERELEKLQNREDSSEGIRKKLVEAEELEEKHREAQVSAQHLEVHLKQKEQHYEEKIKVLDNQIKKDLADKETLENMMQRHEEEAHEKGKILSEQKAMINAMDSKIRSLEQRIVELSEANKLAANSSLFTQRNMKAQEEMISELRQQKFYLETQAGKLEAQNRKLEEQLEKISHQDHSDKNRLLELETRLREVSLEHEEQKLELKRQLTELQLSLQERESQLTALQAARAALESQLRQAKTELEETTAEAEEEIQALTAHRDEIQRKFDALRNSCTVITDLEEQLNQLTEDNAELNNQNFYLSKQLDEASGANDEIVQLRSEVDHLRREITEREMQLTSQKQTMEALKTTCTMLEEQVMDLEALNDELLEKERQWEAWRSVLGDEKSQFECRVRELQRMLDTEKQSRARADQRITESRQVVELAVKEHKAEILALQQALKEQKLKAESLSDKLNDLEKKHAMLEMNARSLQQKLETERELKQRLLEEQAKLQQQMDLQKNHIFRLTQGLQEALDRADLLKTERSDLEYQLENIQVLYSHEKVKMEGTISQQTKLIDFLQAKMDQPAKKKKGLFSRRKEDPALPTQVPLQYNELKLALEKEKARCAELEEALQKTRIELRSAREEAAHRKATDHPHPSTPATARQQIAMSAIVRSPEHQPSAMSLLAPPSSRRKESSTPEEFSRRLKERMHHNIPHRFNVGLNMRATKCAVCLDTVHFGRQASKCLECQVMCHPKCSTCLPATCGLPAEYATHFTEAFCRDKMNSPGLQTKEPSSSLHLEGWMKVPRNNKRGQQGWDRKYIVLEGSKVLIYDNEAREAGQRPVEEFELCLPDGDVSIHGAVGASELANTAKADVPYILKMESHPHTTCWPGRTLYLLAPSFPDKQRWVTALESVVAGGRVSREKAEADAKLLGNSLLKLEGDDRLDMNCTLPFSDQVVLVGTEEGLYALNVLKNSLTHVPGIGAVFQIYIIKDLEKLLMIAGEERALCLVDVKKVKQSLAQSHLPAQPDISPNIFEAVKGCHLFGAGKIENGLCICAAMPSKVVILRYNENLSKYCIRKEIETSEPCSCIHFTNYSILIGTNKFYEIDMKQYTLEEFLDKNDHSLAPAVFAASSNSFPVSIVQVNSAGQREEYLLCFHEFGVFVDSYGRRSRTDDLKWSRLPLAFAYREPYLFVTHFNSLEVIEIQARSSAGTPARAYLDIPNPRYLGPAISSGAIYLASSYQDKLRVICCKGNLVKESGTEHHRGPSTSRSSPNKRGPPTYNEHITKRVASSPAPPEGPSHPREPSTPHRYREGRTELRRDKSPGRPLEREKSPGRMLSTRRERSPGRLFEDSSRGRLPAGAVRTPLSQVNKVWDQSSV
T1 sequence (Q16539 whole entry): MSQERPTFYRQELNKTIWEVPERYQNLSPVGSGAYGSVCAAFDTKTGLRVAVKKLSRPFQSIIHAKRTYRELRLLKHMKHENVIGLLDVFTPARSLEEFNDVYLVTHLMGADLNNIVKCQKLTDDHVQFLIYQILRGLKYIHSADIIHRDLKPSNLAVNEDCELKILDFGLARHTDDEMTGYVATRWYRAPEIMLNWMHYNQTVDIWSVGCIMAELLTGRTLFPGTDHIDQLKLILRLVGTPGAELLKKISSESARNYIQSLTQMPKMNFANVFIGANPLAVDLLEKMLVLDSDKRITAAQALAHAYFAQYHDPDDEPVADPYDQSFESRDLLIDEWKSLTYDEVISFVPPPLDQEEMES

Cc1ccccc1-n1c(C(C)Nc2nc(N)nc3nc[nH]c23)nc2cccc(C)c2c1=O (centres unmarked) [CAL-130]
Percent of Control Binding [1]: 100% | Percent of Control Binding [2]: 100% | Percent of Control Binding [3]: 100% | Percent of Control Binding [4]: 100% | Percent of Control Binding [5]: 100% | Percent of Control Binding [6]: 100% | Percent of Control Binding [7]: 100% | Percent of Control Binding [8]: 100% | Percent of Control Binding [9]: 100% | Percent of Control Binding [10]: 100% | Percent of Control Binding [11]: 100% | Percent of Control Binding [12]: 100% | Percent of Control Binding [13]: 100% | Percent of Control Binding [14]: 100% | Percent of Control Binding ([15]; PI3KCB (Table 2)): 10% | Percent of Control Binding ([15]; PIK3CB (Table 1)): 3.2% | Percent of Control Binding [16]: 100% | Percent of Control Binding [17]: 100% | Percent of Control Binding [18]: 100% | Percent of Control Binding [19]: 100% | Percent of Control Binding [20]: 100% | Percent of Control Binding [21]: 100% | Percent of Control Binding [22]: 100% | Percent of Control Binding [23]: 100% | Percent of Control Binding [24]: 100% | Percent of Control Binding [25]: 100% | Percent of Control Binding [26]: 100% | Percent of Control Binding [27]: 100% | Percent of Control Binding [28]: 100% | Percent of Control Binding [29]: 100% | Percent of Control Binding [30]: 100% | Percent of Control Binding [31]: 100% | Percent of Control Binding [32]: 100% | Percent of Control Binding [33]: 100% | Percent of Control Binding [34]: 100%
